These results are taken from US8288371B2, “Ortho pyrrolidine, benzyl-substituted heterocycle CCR1 antagonists for autoimmune diseases and inflammation” (Pharmacopeia, LLC, priority 2007, dated 2012).

As a reminder, the IC50 is the concentration at which inhibition is half-maximal.

Each structure is given as a SMILES string.

The test deals with T1, human CCR1 (Homo sapiens, UniProt P32246).
T1 sequence (P32246 1-355): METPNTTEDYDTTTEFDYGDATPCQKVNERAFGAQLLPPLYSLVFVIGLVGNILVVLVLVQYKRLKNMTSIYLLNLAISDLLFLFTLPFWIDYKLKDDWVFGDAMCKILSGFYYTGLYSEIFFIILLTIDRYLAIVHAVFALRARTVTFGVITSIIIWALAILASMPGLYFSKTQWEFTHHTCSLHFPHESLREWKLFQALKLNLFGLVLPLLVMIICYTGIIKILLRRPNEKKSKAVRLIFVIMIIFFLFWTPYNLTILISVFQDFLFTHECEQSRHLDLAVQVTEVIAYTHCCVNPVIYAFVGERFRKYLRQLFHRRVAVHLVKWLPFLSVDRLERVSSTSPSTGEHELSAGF
The test is described as follows: CCR1 binding protocol (SPA, [125I]-MIP-1α displacement). Conditions: cell membrane expressing human CCR1, 0.1 nM [125I]-MIP-1α, 4 hours at ambient temperature; read-out: Relative potency (IC50). The procedure, abridged: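 Human CCR1 membranes (0.5 μg/well) on SPA beads were incubated with compound and 0.1 nM [125I]-MIP-1α (final) for 4 h at ambient temperature. Buffer was Tris pH 7.4 with NaCl, KCl, MnCl and 0.1% BSA. IC50 came from ½-log compound dilutions (10 mM top DMSO stock) by displacement of bound radioligand.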
With `Cc1nnc([C@H]2CCCN2C(=O)N[C@H]2CCCc3ccccc32)n1Cc1ccc(Cl)cc1` [Compound 172], the IC50 was in the range of 50 to 500 nM.

Take `Cc1nc(C(F)(F)F)ccc1N/C(=N\C#N)N1CCC[C@@H]1c1nnc(C)n1Cc1ccc(Cl)cc1` [Compound 539]: the IC50 lay within 50 to 500 nM.

As for `Cc1cc(NC(=O)N2CCC[C@@H]2c2nnc(C)n2Cc2ccc(Cl)cc2)n(-c2ccccc2)n1` [Compound 341], the IC50 was less than 50 nM.

In the case of `Cc1ncc(Cc2ccc(Cl)cc2)c([C@H]2CCCN2C(=O)Nc2c(C)cc(Cl)cc2C)n1` [Compound 18], the IC50 was 50 to 500 nM.

`Cc1nnc([C@H]2CCCN2C(=O)Nc2cc(Cl)ccc2F)n1Cc1ccc(Cl)cc1` [Compound 419]: the IC50 was 50 to 500 nM.

`O=C(NCc1ccc(C(F)(F)F)cc1)N1CCC[C@@H]1c1nnc(CO)n1Cc1ccc(Cl)cc1` [Compound 312]: the IC50 was less than 50 nM.

For the compound `Cc1nnc([C@H]2CCCN2C(=O)NCC2CCN(S(C)(=O)=O)CC2)n1Cc1ccc(Cl)cc1` [Compound 600], the IC50 lay within 50 to 500 nM.

Regarding `Cc1nnc([C@H]2CCCN2C(=O)Cc2ccc(F)c(C(F)(F)F)c2)n1Cc1ccc(Cl)cc1` [Compound 504], the IC50 lay within 50 to 500 nM.

`Cc1cc(C)c(C(=O)N(C)C)cc1NC(=O)N1CCC[C@@H]1c1nnc(C)n1Cc1ccc(Cl)cc1` [Compound 375]: the half-maximal inhibitory concentration (IC50) lay within 50 to 500 nM.

With `Cc1nnc([C@H]2CCCN2C(=O)N[C@@H]2CCS(=O)(=O)c3ccc(Cl)cc32)n1Cc1ccc(Cl)cc1` [Compound 368], the IC50 was less than 50 nM.

For the compound `COC1CCC(NC(=O)N2CCC[C@@H]2c2nnc(C)n2Cc2ccc(Cl)cc2)CC1` (some centres unmarked) [Compound 292], the IC50 was 50 to 500 nM.

Take `Cc1noc([C@H]2CCCN2C(=O)Nc2c(C)noc2C)c1Cc1ccc(Cl)cc1` [Compound 1]: the IC50 was less than 50 nM.

On to `Cc1nnc([C@H]2CCCN2C(=O)N[C@@H](C)c2cc3cc(Cl)ccc3o2)n1Cc1ccc(Cl)cc1` [Compound 307], for which the IC50 is less than 50 nM.

For `COc1cc(Cl)ccc1NC(=O)N1CCC[C@@H]1c1nnc(C)n1Cc1ccc(Cl)cc1` [Compound 428], the IC50 is less than 50 nM.

Regarding `Cc1nnc([C@H]2C[C@@H](O)CN2C(=O)Nc2ccc(OC3CCOCC3)nc2)n1Cc1ccc(Cl)cc1` [Compound 558], the IC50 lay in the range of 500 to 5000 nM.

`O=C(NC1CCCOc2ccc(Cl)cc21)N1CCC[C@@H]1c1ncnn1Cc1ccc(Cl)cc1` (some centres unmarked) [Compound 84]: the IC50 was in the range of 50 to 500 nM.

For the compound `Cn1cc(Cc2ccc(Cl)cc2)c([C@H]2CCCN2C(=O)Nc2ccc(C(F)(F)F)cc2)n1` [Compound 8], the IC50 was in the range of 50 to 500 nM.

Turning to `Cc1nnc(C2C3CC3CN2C(=O)NC(c2ccccc2)c2ccccc2)n1Cc1ccc(Cl)cc1` (centres unmarked) [Compound 547], the IC50 is 50 to 500 nM.

Take `Cc1nnc([C@H]2CCCN2C(=O)NCc2ccccc2)n1Cc1ccc(Cl)cc1` [Compound 224]: the IC50 lay within 50 to 500 nM.

On to `Cc1nnc([C@H]2CCCN2C(=O)N[C@@H](C)c2ccc(C(F)(F)F)nc2)n1Cc1ccc(Cl)cc1` [Compound 468], for which the IC50 is less than 50 nM.

Regarding `Cc1nnc([C@H]2CCCN2C(=O)N[C@@H](C)c2cccnc2)n1Cc1ccc(Cl)cc1` [Compound 124], the IC50 is less than 50 nM.

Consider `Cc1nnc([C@H]2CCCN2C(=O)N[C@@H]2COCc3c(F)cccc32)n1Cc1ccc(Cl)cc1` [Compound 141], for which the IC50 was 50 to 500 nM.

As for `Cc1noc(C(F)(F)F)c1NC(=O)N1CCC[C@@H]1c1nnc(C)n1Cc1ccc(Cl)cc1` [Compound 616], the IC50 was less than 50 nM.

On to `Cc1nnc([C@H]2CCCN2C(=O)N[C@@H]2CCc3cc(Cl)ccc32)n1Cc1ccc(Cl)cc1` [Compound 143], for which the IC50 is 50 to 500 nM.

`Cc1nnc([C@H]2CCCN2C(=O)NC2(c3ccccc3)CC2)n1[C@H](C)c1ccc(Cl)cc1` [Compound 357]: the IC50 fell in the range of 50 to 500 nM.

For the compound `Cc1c(NC(=O)N2CCC[C@@H]2c2nnc(C)n2Cc2ccc(Cl)cc2)cccc1C(N)=O` [Compound 247], the IC50 is 500 to 5000 nM.

`CC[C@H](NC(=O)N1CCC[C@@H]1c1nnc(C)n1Cc1ccc(Cl)cc1)c1nc2ccccc2o1` [Compound 516]: the IC50 was in the range of 500 to 5000 nM.

As for `Cc1nc([C@H]2CCCN2C(=O)N[C@H]2CCOc3cc(C(F)(F)F)ccc32)n(Cc2ccc(Cl)cc2)n1` [Compound 96], the IC50 lay within 500 to 5000 nM.

Turning to `Cc1noc(-c2ccccc2)c1NC(=O)N1CCC[C@@H]1c1nnc(C(F)(F)F)n1Cc1ccc(Cl)cc1` [Compound 226], the IC50 is 50 to 500 nM.

`O=C(Nc1ccc(Cl)cc1F)N1CCC[C@@H]1c1nnc(Cl)n1Cc1ccc(Cl)cc1` [Compound 552]: the IC50 was less than 50 nM.

`O=C(Nc1ccc(Cl)c(C(F)(F)F)c1)N1CCC[C@@H]1c1ncnn1Cc1ccc(Cl)cc1` [Compound 448]: the IC50 lay within 50 to 500 nM.

Consider `CC(=O)N1CCC[C@@H](NC(=O)N2CCC[C@@H]2c2nnc(C)n2Cc2ccc(Cl)cc2)C1` [Compound 283], for which the IC50 is 50 to 500 nM.

For the compound `Cc1nc(-c2ccccc2)sc1NC(=O)N1CCC[C@@H]1c1nccn1Cc1ccc(Cl)cc1` [Compound 36], the IC50 is less than 50 nM.

As for `CC[C@H](NC(=O)N1CCC[C@@H]1c1nnc(C)n1Cc1ccc(Cl)cc1)c1ccc(C(F)(F)F)nc1` [Compound 467], the IC50 is less than 50 nM.

For `Cc1nnc([C@H]2CCCN2C(=O)Nc2ccc(C(F)(F)F)cc2Cl)n1Cc1ccc(Cl)cc1` [Compound 154], the IC50 is 50 to 500 nM.

For the compound `CC1(C)CC[C@H](NC(=O)N2CCC[C@@H]2c2ncnn2Cc2ccc(Cl)cc2)c2ccccc21` [Compound 79], the IC50 lay within 500 to 5000 nM.

For `Cc1nnc([C@H]2CCCN2C(=O)NCc2ccc(C(F)(F)F)nc2)n1Cc1ccc(Cl)cc1` [Compound 221], the IC50 lay in the range of 50 to 500 nM.

In the case of `Cc1nnc([C@H]2CCCN2C(=O)Cc2cccc(Cl)c2)n1Cc1ccc(Cl)cc1` [Compound 497], the IC50 was in the range of 50 to 500 nM.

As to `O=C(N[C@H]1CCOc2cc(C(F)(F)F)ccc21)N1C[C@H](O)C[C@@H]1c1nncn1Cc1ccc(Cl)cc1` [Compound 472], the IC50 is less than 50 nM.

On to `Cc1ncnc([C@H]2CCCN2C(=O)NC2(c3ccccc3)CC2)c1Cc1ccc(Cl)cc1` [Compound 26], for which the IC50 lay in the range of 50 to 500 nM.

Consider `Cc1nnc([C@H]2CCCN2C(=O)NC2(c3ccccc3C(F)(F)F)CC2)n1Cc1ccc(Cl)cc1` [Compound 264], for which the 50% inhibitory concentration (IC50) lay within 500 to 5000 nM.

With `Cc1nnc([C@H]2CC(C)(O)CN2C(=O)Nc2ccc(Cl)cc2F)n1Cc1ccc(Cl)cc1` (some centres unmarked) [Compound 532], the IC50 was 50 to 500 nM.

Regarding `Cc1nnc([C@H]2CCCN2C(=O)Nc2cc(S(C)(=O)=O)ccc2F)n1Cc1ccc(Cl)cc1` [Compound 376], the IC50 fell in the range of 50 to 500 nM.

As to `CNC(=O)c1cccc(C)c1NC(=O)N1CCC[C@@H]1c1nnc(C)n1Cc1ccc(Cl)cc1` [Compound 212], the half-inhibitory concentration (IC50) was less than 50 nM.

On to `Cc1nnc([C@H]2CCCN2C(=O)Nc2ccc3c(c2)OCC(=O)N3C)n1Cc1ccc(Cl)cc1` [Compound 339], for which the half-maximal inhibitory concentration (IC50) lay within 500 to 5000 nM.

Turning to `Cc1nnc([C@H]2CCCN2C(=O)CC2CCOc3cc(C(F)(F)F)ccc32)n1Cc1ccc(Cl)cc1` (some centres unmarked) [Compound 515], the IC50 is less than 50 nM.

As to `O=C(Nc1ccc(C(F)(F)F)cc1)N1CCC[C@@H]1c1nnnn1Cc1ccc(Cl)cc1` [Compound 53], the IC50 is less than 50 nM.

In the case of `Cc1nnc([C@H]2CCCN2C(=O)NC2CCOc3cc(C#N)ccc32)n1Cc1ccc(Cl)cc1` (some centres unmarked) [Compound 134], the IC50 was less than 50 nM.

As to `C[C@H](NC(=O)N1CCC[C@@H]1c1ncncc1Cc1ccc(Cl)cc1)c1ccc(C(F)(F)F)cc1` [Compound 20], the IC50 lay within 50 to 500 nM.

On to `Cc1nnc([C@H]2CCCN2C(=O)Nc2cccc(Cl)c2)n1Cc1ccc(Cl)cc1` [Compound 163], for which the 50% inhibitory concentration (IC50) fell in the range of 50 to 500 nM.

For `Cc1nnc([C@H]2CCCN2C(=O)Cc2ccc(Cl)nc2)n1Cc1ccc(Cl)cc1` [Compound 518], the IC50 is less than 50 nM.

`Cc1nnc([C@H]2C[C@@H](O)CN2C(=O)Nc2ccc(Cl)nc2Cl)n1Cc1ccc(Cl)cc1` [Compound 498]: the half-inhibitory concentration (IC50) fell in the range of 50 to 500 nM.

For `Cc1nnc([C@H]2CCCN2C(=O)Nc2ccc(C(F)(F)F)nc2)n1Cc1ccc(Cl)cc1` [Compound 633], the IC50 was in the range of 50 to 500 nM.

With `Cc1nnc([C@H]2C[C@H](O)CN2C(=O)Nc2ccc(C(F)(F)F)nc2Cl)n1Cc1ccc(Cl)cc1` [Compound 491], the IC50 was less than 50 nM.

For `Cc1nnc([C@H]2CCCN2C(=O)Nc2ccc(Cl)cc2F)n1C1(c2ccc(Cl)cc2)CC1` [Compound 325], the IC50 fell in the range of 50 to 500 nM.

Regarding `Cc1cccc(Cl)c1NC(=O)N1CCC[C@@H]1c1nnc(C)n1Cc1ccc(Cl)cc1` [Compound 151], the IC50 is less than 50 nM.

On to `COC(=O)c1cc(C)ccc1NC(=O)N1CCC[C@@H]1c1nnc(C)n1Cc1ccc(Cl)cc1` [Compound 248], for which the IC50 lay in the range of 500 to 5000 nM.

As for `COc1ccc(-c2noc(C)c2NC(=O)N2CCC[C@@H]2c2nnc(C)n2Cc2ccc(Cl)cc2)cc1` [Compound 303], the half-maximal inhibitory concentration (IC50) was less than 50 nM.

Turning to `Cc1nnc([C@H]2CCCN2C(=O)Nc2ccc3c(c2)N(C)C(=O)CO3)n1Cc1ccc(F)cc1` [Compound 386], the IC50 was in the range of 50 to 500 nM.

Take `Cc1noc([C@H]2CCCN2C(=O)Nc2ccc(C(F)(F)F)cc2)c1Cc1ccc(Cl)cc1` [Compound 6]: the half-maximal inhibitory concentration (IC50) is 500 to 5000 nM.

Regarding `CC[C@H](NC(=O)N1CCC[C@@H]1c1nnc(C)n1Cc1ccc(F)cc1)c1cc2ccccc2o1` [Compound 586], the IC50 is less than 50 nM.

For `Cc1ncccc1NC(=O)N1CCC[C@@H]1c1nnc(C)n1Cc1ccc(Cl)cc1` [Compound 223], the IC50 was 50 to 500 nM.
